These results are taken from patent publication US9963467B2, “Boronic acid derivatives and therapeutic uses thereof” (Rempex Pharmaceuticals, Inc., priority 2014, dated 2018).

The structures appear in SMILES notation. Some results are limits rather than exact numbers.

Series [1] concerns KP1005 (CTX-M-14). Briefly: Aztreonam potentiation (MPC@4), KP1005. It is filed as cell-based. The conditions noted are these: BLI with aztreonam at 4 μg/mL.
Series [2] relates to KP1009 (CTX-M-15). Briefly: organism not typed. The class given is cell-based.
Series [3] relates to ec308 (SHV-5). Briefly: Aztreonam potentiation (MPC@4), ec308. It is filed as cell-based. As to conditions: BLI with aztreonam at 4 μg/mL.
Series [4] concerns ec302 (TEM-10). In words: Aztreonam potentiation (MPC@4), ec302. It is filed as cell-based. The conditions noted are these: BLI with aztreonam at 4 μg/mL.
In series [5] the test system is KP1004 (KPC-2). Briefly: Aztreonam potentiation (MPC@4), KP1004. It is filed as cell-based. The conditions noted are these: BLI with aztreonam at 4 μg/mL.
Series [6] has as its system ECL1002. Briefly: Aztreonam potentiation (MPC@4), ECL1002. The class given is cell-based. The conditions noted are these: BLI with aztreonam at 4 μg/mL.
Series [7] has as its system EC1010 (CMY-6). Briefly: organism not typed. The class given is cell-based.
Series [8] has as its system KP1005 (CTX-M-14). Briefly: Tigemonam potentiation (MPC@4), KP1005. The class given is cell-based. The conditions noted are these: BLI with tigemonam at 4 μg/mL.
Series [9] has as its system KP1009 (CTX-M-15). In words: Tigemonam potentiation (MPC@4), KP1009. The class given is cell-based. As to conditions: BLI with tigemonam at 4 μg/mL.
Series [10] deals with ec308 (SHV-5). Briefly: Tigemonam potentiation (MPC@4), ec308. It is filed as cell-based.
For series [11], the system named is KP1010 (SHV-12). Briefly: Tigemonam potentiation (MPC@4), KP1010. The class given is cell-based.
Series [12] deals with ec302 (TEM-10). Briefly: Tigemonam potentiation (MPC@4), ec302. It is filed as cell-based.
The test system of series [13] is ECL1002. Briefly: Tigemonam potentiation (MPC@4), ECL1002. As to conditions: BLI with tigemonam at 4 μg/mL. It is filed as cell-based.
Series [14] concerns EC1010 (CMY-6). In words: Tigemonam potentiation (MPC@4), EC1010. As to conditions: BLI with tigemonam at 4 μg/mL. It is filed as cell-based.
For a further series, the target named is CTX-M-14 (Escherichia coli, UniProt Q9L5C7). Briefly: Ki, nitrocefin cleavage by purified enzyme, CTX-M-14. As to conditions: nitrocefin reporter substrate; read-out: Ki (CTX-M-14, NCF). The class given is biochemical. The procedure, abridged:
(§1)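 10 min RT preincubation, enzyme with inhibitor series in reaction buffer. Substrate nitrocefin; kinetic read 490 nm, 10 sec intervals, 10 min total.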

Another series has as its target SHV-12 (Klebsiella pneumoniae, UniProt P0AD64, E235K/G234S/L31Q). Briefly: Ki, nitrocefin cleavage by purified enzyme, SHV-12. It is filed as biochemical. The conditions noted are these: nitrocefin reporter substrate; read-out: Ki (SHV-12, NCF). Summed up:
as §1

A further series addresses KPC-2 (Klebsiella pneumoniae, UniProt Q9F663). In words: Ki, nitrocefin cleavage by purified enzyme, KPC-2. The conditions noted are these: nitrocefin reporter substrate; read-out: Ki (KPC-2, NCF). It is filed as biochemical. Summed up: as §1
A further series addresses P99 (Enterobacter cloacae, UniProt P05364). In words: Ki, nitrocefin cleavage by purified enzyme, P99. The conditions noted are these: nitrocefin reporter substrate; read-out: Ki (P99, NCF). It is filed as biochemical. The procedure, abridged: as §1
The next series concerns the target Pa AmpC (Pseudomonas aeruginosa, UniProt P24735). Briefly: Ki, nitrocefin cleavage by purified enzyme, Pa AmpC. The class given is biochemical. The conditions noted are these: nitrocefin reporter substrate; read-out: Ki (Pa AmpC, NCF). Summed up:
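Nitrocefin hydrolysis by purified β-lactamase is followed at 490 nm every 10 sec for 10 min. Before substrate is added, enzyme sits with varying inhibitor concentrations for 10 min at room temperature. Ki comes from these cleavage profiles.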

For a further series, the target named is OXA-48 (Klebsiella pneumoniae, UniProt Q6XEC0). In words: Ki, nitrocefin cleavage by purified enzyme, OXA-48. The class given is biochemical. As to conditions: nitrocefin reporter substrate; read-out: Ki (OXA-48, NCF). Summed up: as §1
The nature of series [15]: Monomer content of pH adjusted aqueous solutions (LC-UV). It is filed as physicochemical. The conditions noted are these: 1 mg/mL aqueous salt solution, pH adjusted to 7.6 to 8, LC-UV. The procedure, abridged: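 Aqueous solutions at 1.00, 10.0 or 100 mg/mL (active fraction) brought to pH 7.6–8 with acid or base, compound fully dissolved. Injected within half an hour of preparation onto C18 reversed-phase LC (0.1% TFA water / 0.085% TFA methanol gradient); UV detection at 220, 254 and 300 nm.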

Series [16] has as its system KP1004 (KPC-2). In words: Biapenem potentiation (MPC@1), KP1004. The conditions noted are these: BLI with biapenem at 1 μg/mL.
Another series has as its system KP1086 (OXA-48). Briefly: Biapenem potentiation (MPC@1), KP1086. As to conditions: BLI with biapenem at 1 μg/mL.
Series [17] has as its system KP1010 (SHV-12). In words: Aztreonam potentiation (MPC@4), KP1010. It is filed as cell-based.

Sequence of OXA-48 (Q6XEC0 23-265, looked up, species assumed): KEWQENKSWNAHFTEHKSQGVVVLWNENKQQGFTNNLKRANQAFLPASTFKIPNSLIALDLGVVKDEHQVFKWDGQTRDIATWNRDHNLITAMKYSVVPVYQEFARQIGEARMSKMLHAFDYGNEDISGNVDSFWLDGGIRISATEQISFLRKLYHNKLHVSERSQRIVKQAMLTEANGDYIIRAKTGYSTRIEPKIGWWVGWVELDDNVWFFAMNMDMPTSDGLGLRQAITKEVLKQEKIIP
Sequence of CTX-M-14 (Q9L5C7 29-291): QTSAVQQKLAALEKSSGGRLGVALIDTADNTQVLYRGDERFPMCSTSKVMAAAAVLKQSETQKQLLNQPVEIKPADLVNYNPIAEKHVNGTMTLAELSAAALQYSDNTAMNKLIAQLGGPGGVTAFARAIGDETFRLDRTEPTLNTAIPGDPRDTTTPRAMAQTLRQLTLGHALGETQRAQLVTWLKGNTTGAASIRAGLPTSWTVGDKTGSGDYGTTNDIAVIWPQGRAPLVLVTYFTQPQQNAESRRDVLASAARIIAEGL
Sequence of Pa AmpC (P24735 27-397): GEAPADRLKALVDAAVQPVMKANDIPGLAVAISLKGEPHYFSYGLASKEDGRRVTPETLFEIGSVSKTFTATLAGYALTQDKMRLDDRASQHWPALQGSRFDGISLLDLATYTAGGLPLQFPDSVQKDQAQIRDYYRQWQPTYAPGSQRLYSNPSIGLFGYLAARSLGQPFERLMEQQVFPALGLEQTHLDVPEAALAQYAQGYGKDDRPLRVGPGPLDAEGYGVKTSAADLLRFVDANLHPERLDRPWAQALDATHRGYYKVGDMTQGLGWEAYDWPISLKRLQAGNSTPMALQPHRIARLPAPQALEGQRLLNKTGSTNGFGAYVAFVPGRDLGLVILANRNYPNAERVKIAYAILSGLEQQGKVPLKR
Sequence of P99 (P05364 21-381): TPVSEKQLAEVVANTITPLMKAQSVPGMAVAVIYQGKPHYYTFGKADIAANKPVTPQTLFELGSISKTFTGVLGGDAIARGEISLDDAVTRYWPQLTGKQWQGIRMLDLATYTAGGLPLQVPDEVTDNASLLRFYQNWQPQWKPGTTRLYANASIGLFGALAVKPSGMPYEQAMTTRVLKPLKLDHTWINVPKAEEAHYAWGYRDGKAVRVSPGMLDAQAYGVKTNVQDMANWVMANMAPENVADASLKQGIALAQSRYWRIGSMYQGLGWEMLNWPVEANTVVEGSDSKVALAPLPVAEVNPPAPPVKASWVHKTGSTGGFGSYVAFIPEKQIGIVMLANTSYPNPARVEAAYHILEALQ
Sequence of SHV-12 (P0AD64 22-286 L31Q/G234S/E235K): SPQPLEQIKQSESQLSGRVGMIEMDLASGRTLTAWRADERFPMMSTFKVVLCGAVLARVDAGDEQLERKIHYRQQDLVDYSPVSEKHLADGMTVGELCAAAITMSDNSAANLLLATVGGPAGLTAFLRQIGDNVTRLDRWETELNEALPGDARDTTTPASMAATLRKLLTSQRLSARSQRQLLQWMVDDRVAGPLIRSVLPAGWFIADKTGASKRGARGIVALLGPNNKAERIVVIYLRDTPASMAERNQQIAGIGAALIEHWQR
Sequence of KPC-2 (Q9F663 25-293, looked up, species assumed): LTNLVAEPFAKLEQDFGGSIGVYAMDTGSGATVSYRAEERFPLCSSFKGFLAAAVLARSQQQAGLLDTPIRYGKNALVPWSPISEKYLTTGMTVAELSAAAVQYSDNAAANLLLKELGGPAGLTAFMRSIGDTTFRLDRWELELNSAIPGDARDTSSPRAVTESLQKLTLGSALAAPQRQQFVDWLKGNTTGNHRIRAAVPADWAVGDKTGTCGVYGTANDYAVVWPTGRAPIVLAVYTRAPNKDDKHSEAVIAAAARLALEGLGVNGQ

As for `CSCC(=O)N[C@H]1Cc2c(F)cc(F)c(C(=O)O)c2OB1O` [Compound 32, (R)-5,7-difluoro-2-hydroxy-3-(2-(methylthio)acetamido)-3,4-dihydro-2H-benzo[e][1,2]oxaborinine-8-carboxylic acid], the “AZT MPC4 CTX-M-14 KP1005” value in the series with KP1005 (CTX-M-14) [1] is on record as “Y (MIC of 1 μg/mL to 10 μg/mL)”. Also, the “AZT MPC4 CTX-M-15 KP1009” value in the series with KP1009 (CTX-M-15) [2] is reported as “Y (key: X: MIC of less than 1 ng/mL; Y: MIC of 1 μg/mL to 10 μg/mL; Z: MIC of greater than 10 μg/mL)”. For the same molecule, the “AZT MPC4 SHV-5 ec308” value in the series on ec308 (SHV-5) [3] was “Y (MIC of 1 μg/mL to 10 μg/mL)”. In addition, in the series with ec302 (TEM-10) [4], the “AZT MPC4 TEM-10 ec302” value is listed as “Y (MIC of 1 μg/mL to 10 μg/mL)”. The “AZT MPC4 KPC-2 KP1004” value in the series on KP1004 (KPC-2) [5] is given as “Y (MIC of 1 μg/mL to 10 μg/mL)”. Besides, the “AZT MPC4 ECL1002” value in the series with ECL1002 [6] was “Y (MIC of 1 μg/mL to 10 μg/mL)”. Moreover, in the series on EC1010 (CMY-6) [7], the “AZT MPC4 CMY-6 EC1010” value is given as “Y (key: X: MIC of less than 1 ng/mL; Y: MIC of 1 μg/mL to 10 μg/mL; Z: MIC of greater than 10 μg/mL)”. In the series on KP1005 (CTX-M-14) [8], the “TIG MPC4 CTX-M-14 KP1005” value is on record as “Y (MIC of 1 μg/mL to 10 μg/mL)”. Besides, in the series on KP1009 (CTX-M-15) [9], the “TIG MPC4 CTX-M-15 KP1009” value is “Y (MIC of 1 μg/mL to 10 μg/mL)”. Further, the “TIG MPC4 SHV-5 ec308” value in the series with ec308 (SHV-5) [10] is on record as “Y (key: X: MIC of less than 1 ng/mL; Y: MIC of 1 μg/mL to 10 μg/mL; Z: MIC of greater than 10 μg/mL)”. For the same molecule, the “TIG MPC4 SHV-12 KP1010” value in the series on KP1010 (SHV-12) [11] is “X (key: X: MIC of less than 1 μg/mL; Y: MIC of 1 μg/mL to 10 μg/mL; Z: MIC of greater than 10 μg/mL)”. Further, the “TIG MPC4 TEM-10 ec302” value with ec302 (TEM-10) [12] is given as “Z (key: X: MIC of less than 1 ng/mL; Y: MIC of 1 μg/mL to 10 μg/mL; Z: MIC of greater than 10 μg/mL)”. Also, in the series with ECL1002 [13], the “TIG MPC4 ECL1002” value is reported as “Y (MIC of 1 μg/mL to 10 μg/mL)”. Also, the “TIG MPC4 CMY-6 EC1010” value in the series on EC1010 (CMY-6) [14] is “Y (MIC of 1 μg/mL to 10 μg/mL)”. In addition, the Ki – broadly, the equilibrium dissociation constant of an inhibitor or competing ligand from its target – was 1 to 10 nM on CTX-M-14; under 1 nM on SHV-12; over 10 nM at KPC-2; over 10 nM at P99; over 10 nM at Pa AmpC; 1 to 10 nM on OXA-48. Further, in series [15], the “% Monomer in 1 mg/mL salt solution” value worked out at 95.8%. In addition, the “BPM MPC1 KP1004 KPC-2” value in the series on KP1004 (KPC-2) [16] is listed as “X (MIC of less than 1 μg/mL)”. The “BPM MPC1 OXA-48 KP1086” value with KP1086 (OXA-48) is “Y (MIC of 1 μg/mL to 10 μg/mL)”.

Take `NC(=O)CC(=O)N[C@H]1Cc2cccc(C(=O)O)c2OB1O` [E, reference compound]: the “AZT MPC4 CTX-M-14 KP1005” value in the series with KP1005 (CTX-M-14) [1] is listed as “X (MIC of less than 1 ng/mL)”. Moreover, in the series with KP1009 (CTX-M-15) [2], the “AZT MPC4 CTX-M-15 KP1009” value is listed as “X (key: X: MIC of less than 1 ng/mL; Y: MIC of 1 μg/mL to 10 μg/mL; Z: MIC of greater than 10 μg/mL)”. Also, in the series on ec308 (SHV-5) [3], the “AZT MPC4 SHV-5 ec308” value is reported as “X (MIC of less than 1 ng/mL)”. In addition, in the series with KP1010 (SHV-12) [17], the “AZT MPC4 SHV-12 KP1010” value is reported as “X (key: X: MIC of less than 1 ng/mL; Y: MIC of 1 μg/mL to 10 μg/mL; Z: MIC of greater than 10 μg/mL)”. In addition, in the series on ECL1002 [6], the “AZT MPC4 ECL1002” value was “X (MIC of less than 1 ng/mL)”. Moreover, the “AZT MPC4 CMY-6 EC1010” value in the series on EC1010 (CMY-6) [7] was “X (key: X: MIC of less than 1 ng/mL; Y: MIC of 1 μg/mL to 10 μg/mL; Z: MIC of greater than 10 μg/mL)”. The “TIG MPC4 CTX-M-14 KP1005” value with KP1005 (CTX-M-14) [8] is on record as “Y (MIC of 1 μg/mL to 10 μg/mL)”. Besides, the “TIG MPC4 CTX-M-15 KP1009” value in the series on KP1009 (CTX-M-15) [9] is recorded as “Y (MIC of 1 μg/mL to 10 μg/mL)”. Further, in the series with ec308 (SHV-5) [10], the “TIG MPC4 SHV-5 ec308” value is on record as “Y (key: X: MIC of less than 1 ng/mL; Y: MIC of 1 μg/mL to 10 μg/mL; Z: MIC of greater than 10 μg/mL)”. Moreover, the “TIG MPC4 SHV-12 KP1010” value in the series on KP1010 (SHV-12) [11] is recorded as “X (key: X: MIC of less than 1 μg/mL; Y: MIC of 1 μg/mL to 10 μg/mL; Z: MIC of greater than 10 μg/mL)”. Also, the “TIG MPC4 TEM-10 ec302” value with ec302 (TEM-10) [12] is listed as “Z (key: X: MIC of less than 1 ng/mL; Y: MIC of 1 μg/mL to 10 μg/mL; Z: MIC of greater than 10 μg/mL)”. Moreover, the “TIG MPC4 ECL1002” value with ECL1002 [13] is recorded as “X (MIC of less than 1 μg/mL)”. Moreover, the Ki at CTX-M-14 and at OXA-48 was under 1 nM each time. The “BPM MPC1 KP1004 KPC-2” value in the series on KP1004 (KPC-2) [16] is listed as “X (MIC of less than 1 μg/mL)”. Further, the “BPM MPC1 OXA-48 KP1086” value with KP1086 (OXA-48) is listed as “Y (MIC of 1 μg/mL to 10 μg/mL)”.
